Counter-ions that a name gives are not always drawn.
Assay: Thermal stability assessment, oven then HPLC for degradants
Type: physicochemical
Settings: oven at 210° C. for 10 mins, compared with unheated sample
Protocol: The antimicrobial agents were placed into an oven set at 210° C. for 10 mins (to mimic condition in which the antimicrobial agent would be exposed to heat during the compounding and extrusion processes). Another set of the same antimicrobial agents was not exposed to any heat. The unheated and heated samples were then examined through HPLC method for presence of degradants (extra peaks). Results of CHA and CHD are in FIGS. 8, 9, 10, and 11. […] Similar to CHD, ALX-D was also found stable at 210° C. for 10 mins and was found suitable for including in the device through compounding process.

Row | thermal stability, presence of degradants (extra peaks) by HPLC | Structure (SMILES)
1 | absence of any extra peaks | [H]/N=C(\N/C(=N/[H])NCCCCCCNC(=N)NC(=N)Nc1ccc(Cl)cc1)Nc1ccc(Cl)cc1 [CHD, Chlorhexidine Dihydrochloride]
2 | several extra peaks from degradants | CC(=O)O.CC(=O)O.NC(=N\CCCCCC/N=C(N)/N=C(\N)Nc1ccc(Cl)cc1)/N=C(\N)Nc1ccc(Cl)cc1 [CHA, Chlorhexidine Diacetate]
3 | stable | CCCCC(CC)CNC(=N)NC(=N)NCCCCCCNC(=N)NC(=N)NCC(CC)CCCC (stereo not drawn) [ALX-D, Alexidine Dihydrochloride]

From patent US20230211052A1, “COMPOUNDED ACTIVE PHARMACEUTICAL AGENTS IN THERMOPLASTIC POLYMER COMPOSITIONS AND METHODS OF MANUFACTURE” (priority 2021, published 2023)
